Patent US11654196B2, “Dosing regimens for echinocandin class compounds” (priority 2012, dated 2023)
Read-outs that look alike come from different tables or passages of the source. *1 amine or outer side, *2 acyl side, *3 side chain or, on linkers, in order; H or OH if unused. Where a SMILES comes first, the peptide text is derived from it. Bridges are numbered along the chain shown (N, C = ends). [ ]: non-standard residue; d: D form. The star is where a group is joined. hTyr(3S-OH,4S-OH,3'-OSO3H) = N[C@H](C(=O)O)[C@H](O)[C@@H](O)c1ccc(O)c(OS(=O)(=O)O)c1; Orn(4R-OH,5R-OH) = O=C([C@H](C[C@@H](O)[C@@H](O)N[*:3])N[*:1])[*:2]; Pro(3S-OH,4S-Me) = C[C@H]1CN[C@H](C(=O)O)[C@H]1O; X1 = CCCCCOc1ccc(-c2cc(-c3ccc(C(=O)*)cc3)no2)cc1; Gln(3R-OH) = NC(=O)C[C@@H](O)[C@H](N)C(=O)O; Hyp = O=C(O)[C@@H]1C[C@@H](O)CN1

Assays:
[1] = Mouse, literature values; cited from earlier work
[2] = Rat, literature values; cited from earlier work
[3] = Rabbit, literature values; cited from earlier work
[4] = Man, literature values; cited from earlier work
[5] = Pharmacokinetics following intravenous administration in beagle dogs; assay type: in vivo; details: 1.4 mg/kg IV slow bolus
Description: Echinocandin class compounds were administered to beagle dogs weighing approximately 6-10 kg. Each compound was dosed at 1.4 mg/kg in aqueous saline (with or without 0.5% Tween) over course of 1-10 minutes. […] The dogs were fasted at least 12 hours prior to each dosing and offered food after the 4-hour blood sample was taken; water was withheld for 1 hour prior to and 4 hours following each dosing event. The dose for each animal was based on its most recent body weight. The test article was injected intravenously via a catheter placed in the cephalic vein as a slow bolus.
Blood was collected via the jugular vein. All blood samples (1 mL each) were collected into K3EDTA tubes. Following blood collection, the samples were immediately inverted several times and were held on wet ice pending centrifugation. The samples were centrifuged within 30 minutes of collection under refrigeration (˜5° C. for 10 minutes at 2000 g) to obtain plasma. The plasma was frozen immediately on dry ice after separation. The plasma samples were stored at approximately ˜70° C. until analysis.
Plasma (100 μL) was precipitated with 400 μL of 0.1% formic acid in acetonitrile containing the internal standard (100 ng/mL pneumocandin). The samples were then capped and vortexed for about 30 seconds followed by centrifugation at 14,000 rpm at room temperature for 10 minutes. Following centrifugation 200 μL of supernatant was transferred to plastic autosampler vials containing 200 μL of 0.1% formic acid in water and vortexed. Samples were then analyzed by LCMSMS.
All pharmacokinetic calculations were performed using WinNonlin version 4.1 (Pharsight Corp) by noncompartmental analysis.

[6] = Pharmacokinetics (oral bioavailability) following oral administration in beagle dogs; assay type: in vivo; set-up: key to Improvement (ratio of % oral bioavailability to saline): NI = no improvement in oral bioavailability in comparison to saline; details: for % BA in saline: oral about 7-10 mg/kg, formulation 11 (saline)
Description: Echinocandin class compounds were administered to beagle dogs weighing approximately 6-10 kg. Each animal received the appropriate prepared test article in a single oral capsule dose at a target dose level of about 7-10 mg/kg. Immediately after dosing, each animal was offered 20 mL-30 mL of water orally (Groups 1-4) or 30 mL of water orally to assist in swallowing the capsule.
Animals were treated and blood samples were drawn and analyzed as provided in Example 1.
The bioavailability of each oral dose formulation was estimated by comparison to intravenous plasma concentration data in dogs from Example 1. The results provided in Table 3 show the oral bioavailability for the echinocandin class compound in saline (formulation 11), and the improvement over saline with the use of a formulation of the invention.

AUC [5] | Cmax [5] | Mean clearance [5] | T1/2 [5] | Volume of Distribution [5] | % BA in saline [6] | % BA ([6]; oral, formulation 1) | Improvement (ratio of % oral bioavailability to saline) ([6]; oral, formulation 1) | Improvement (ratio of % oral bioavailability to saline) ([6]; oral, formulation 5) | Improvement (ratio of % oral bioavailability to saline) ([6]; oral, formulation 7) | Improvement (ratio of % oral bioavailability to saline) ([6]; oral, formulation 6) | Improvement (ratio of % oral bioavailability to saline) ([6]; oral, formulation 3) | Compound | Half-life [1] | Half-life [2] | Half-life [3] | Half-life [4]
– | – | – | – | – | – | – | – | – | – | – | – | CCCCCOc1ccc(-c2cc(-c3ccc(C(=O)N[C@H]4C[C@@H](O)[C@@H](O)NC(=O)[C@@H]5[C@@H](O)[C@@H](C)CN5C(=O)[C@H]([C@H](O)CC(N)=O)NC(=O)[C@H]([C@H](O)[C@@H](O)c5ccc(O)c(OS(=O)(=O)O)c5)NC(=O)[C@@H]5C[C@@H](O)CN5C(=O)[C@H]([C@@H](C)O)NC4=O)cc3)no2)cc1 [Micafungin, micafungin] (X1-[Orn(4R-OH,5R-OH)]T[Hyp][hTyr(3S-OH,4S-OH,3'-OSO3H)][Gln(3R-OH)][Pro(3S-OH,4S-Me)]; lactam 1-C) | 7 to 13 h | 5 h | 3 h | 10 to 17 h
113000 ng·h/mL | 6740 ng/mL | 0.145 mL/min/kg | 28.9 h | 0.361 L/kg | 4.70% | (6.42%) | 1.3 | NI | NI | – | – | CCCCCOc1ccc(-c2ccc(-c3ccc(C(=O)NC4CC(O)C(OCCOCCO)NC(=O)C5C(O)C(C)CN5C(=O)C(C(C)O)NC(=O)C(C(O)C(O)c5ccc(O)cc5)NC(=O)C5CC(O)CN5C(=O)C(C(C)O)NC4=O)cc3)cc2)cc1 (centres unmarked) [Compound 21] | – | – | – | –
50800 ng·h/mL | 3630 ng/mL | 0.377 mL/min/kg | 21.0 h | 0.687 L/kg | 5.15% | – | NI | NI | – | – | – | CCCCCOc1ccc(-c2ccc(-c3ccc(C(=O)NC4CC(O)C(NCCNCCO)NC(=O)C5C(O)C(C)CN5C(=O)C(C(C)O)NC(=O)C(C(O)C(O)c5ccc(O)cc5)NC(=O)C5CC(O)CN5C(=O)C(C(C)O)NC4=O)cc3)cc2)cc1 (centres unmarked) [Compound 39] | – | – | – | –
96100 ng·h/mL | 7700 ng/mL | 0.202 mL/min/kg | 18.9 h | 0.331 L/kg | 5.74% | – | NI | NI | – | – | – | CCCCCOc1ccc(-c2ccc(-c3ccc(C(=O)NC4CC(O)C(OCCOCCOC)NC(=O)C5C(O)C(C)CN5C(=O)C(C(C)O)NC(=O)C(C(O)C(O)c5ccc(O)cc5)NC(=O)C5CC(O)CN5C(=O)C(C(C)O)NC4=O)cc3)cc2)cc1 (centres unmarked) [Compound 19] | – | – | – | –
67167 ng·h/mL | 4080 ng/mL | 0.219 mL/min/kg | 33.7 h | 0.627 L/kg | – | – | – | NI | NI | NI | – | CCCCCOc1ccc(-c2ccc(-c3ccc(C(=O)NC4CC(O)C(OCCOCCN)NC(=O)C5C(O)C(C)CN5C(=O)C(C(C)O)NC(=O)C(C(O)C(O)c5ccc(O)cc5)NC(=O)C5CC(O)CN5C(=O)C(C(C)O)NC4=O)cc3)cc2)cc1 (centres unmarked) [Compound 26] | – | – | – | –
46200 ng·h/mL | 2660 ng/mL | 0.365 mL/min/kg | 27.6 h | 0.874 L/kg | – | – | NI | NI | NI | – | NI | CCCCCOc1ccc(-c2ccc(-c3ccc(C(=O)NC4CC(O)C(NCC[N+](C)(C)C)NC(=O)C5C(O)C(C)CN5C(=O)C(C(C)O)NC(=O)C(C(O)C(O)c5ccc(O)cc5)NC(=O)C5CC(O)CN5C(=O)C(C(C)O)NC4=O)cc3)cc2)cc1 (centres unmarked) [Compound 37] | – | – | – | –
